Legend:
thrombin = molecular target: T1, thrombin (Homo sapiens, UniProt P00734); assay: thrombin amidolytic assay (IIA); assay type: biochemical; details: substrate Chromozym TH, 5 min preincubation, room temperature, pH 7.5
T1 construct: proteolytic cleavage of its precursor prothrombin at the Arg-Thr linkage at positions 271-272 and the Arg-Ile linkage at positions 320-321
Experimental: […] In the assays for thrombin, prothrombinase and factor Xa, a synthetic chromogenic substrate is added to a solution containing test compound and the enzyme of interest and the residual catalytic activity of that enzyme is detennined spectrophotometrically. The IC50 of a compound is determined from the substrate turnover. The IC50 is the concentration of test compound giving 50% inhibition of the substrate turnover.
(§1) The factor Xa and thrombin assays were performed at room temperature, in 0.02 M TrisHCl buffer, pH 7.5, containing 0.15 M NaCl. The rates of hydrolysis of the para-nitroanilide substrate S-2765 (Chromogenix) for factor Xa, and the substrate Chromozym TH (Boehringer Mannheim) for thrombin following preincubation of the enzyme with inhibitor for 5 minutes at room temperature, and were determined using the Softmax 96-well plate reader (Molecular Devices), monitored at 405 nm to measure the time dependent appearance of p-nitroaniline.

factor Xa = factor Xa (Homo sapiens, UniProt P00742); assay: factor Xa amidolytic assay (XA); assay type: biochemical; details: substrate S-2765, 5 min preincubation, room temperature, pH 7.5
Experimental: The compounds of the present invention are dissolved in buffer to give solutions containing concentrations such that assay concentrations range from 0 to 100 μM. In the assays for thrombin, prothrombinase and factor Xa, a synthetic chromogenic substrate is added to a solution containing test compound and the enzyme of interest and the residual catalytic activity of that enzyme is detennined spectrophotometrically. The IC50 of a compound is determined from the substrate turnover. The IC50 is the concentration of test compound giving 50% inhibition of the substrate turnover.
as §1

Chain of factor Xa (P00742 235-488 limits assumed): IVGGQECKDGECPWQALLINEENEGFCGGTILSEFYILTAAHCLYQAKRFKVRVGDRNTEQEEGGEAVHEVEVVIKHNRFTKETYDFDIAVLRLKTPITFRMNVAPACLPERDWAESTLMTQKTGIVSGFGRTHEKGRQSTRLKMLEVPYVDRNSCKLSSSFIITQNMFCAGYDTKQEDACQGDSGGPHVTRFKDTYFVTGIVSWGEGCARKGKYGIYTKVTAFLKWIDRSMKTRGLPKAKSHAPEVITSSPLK
Chain of factor Xa (P00742 41-179 partner limits assumed): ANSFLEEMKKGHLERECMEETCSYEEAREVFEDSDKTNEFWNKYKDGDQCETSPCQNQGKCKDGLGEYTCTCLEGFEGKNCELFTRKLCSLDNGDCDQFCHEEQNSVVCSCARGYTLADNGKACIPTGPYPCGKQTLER

Compound | IC50 (thrombin) [nM] | IC50 (factor Xa) [nM]
CC(=N)N1CCC(Oc2ccc3c(c2)CCN(C(Cc2cccc(C(=N)N)c2)C(=O)NC(C)(C)C)C3=O)CC1 (centres unmarked) [Example 13] | 35900 | 993
CC(=N)N1CCC(Oc2ccc3c(c2)CCN(C(Cc2cccc(C(=N)N)c2)C(=O)O)C3=O)CC1 (centres unmarked) [Example 14] |  | 810
N=C(N)c1cccc(CC(C(=O)O)N2CCc3cc(OC4CCN(C(=N)N)CC4)ccc3C2=O)c1 (centres unmarked) [Example 15] |  | 794
COC(=O)C(Cc1ccc2ccc(C(=N)N)cc2c1)N1CCc2cc(OC3CCN(C(=N)N)CC3)ccc2C1=O (centres unmarked) [Example 16] | 228000 | 693
CC(=N)N1CCC(Oc2ccc3c(c2)CCN(C(Cc2ccc4ccc(C(=N)N)cc4c2)C(=O)O)C3=O)CC1 (centres unmarked) [Example 17] |  | 348
N=C(N)c1ccc2ccc(CC(C(=O)O)N3CCc4cc(OC5CCN(C(=N)N)CC5)ccc4C3=O)cc2c1 (centres unmarked) [Example 18] |  | 282

The remaining lines, values ahead:

IC50 (thrombin) [nM] | IC50 (factor Xa) [nM] | Compound
119000 | 258 | CC(=N)N1CCC(Oc2ccc3c(c2)CCN(C(Cc2ccc4ccc(C(=N)N)cc4c2)C(=O)OC(C)(C)C)C3=O)CC1 (centres unmarked) [Example 19]
101000 | 168 | CC(C)(C)OC(=O)C(Cc1ccc2ccc(C(=N)N)cc2c1)N1CCc2cc(OC3CCN(C(=N)N)CC3)ccc2C1=O (centres unmarked) [Example 20]
402000 | 152 | COC(=O)C(Cc1cccc(C(=N)N)c1)N1CCc2cc(OC3CCN(C(=N)N)CC3)ccc2C1=O (centres unmarked) [Example 21]
393000 | 129 | COC(=O)C(Cc1cccc(C(=N)N)c1)N1CCc2cc(OC3CCN(C(C)=N)CC3)ccc2C1=O (centres unmarked) [Example 22]
233000 | 47.5 | CC(C)(C)OC(=O)C(Cc1cccc(C(=N)N)c1)N1CCc2cc(OC3CCN(C(=N)N)CC3)ccc2C1=O (centres unmarked) [Example 23]
150000 | 22.1 | CC(=N)N1CCC(Oc2ccc3c(c2)CCN(C(Cc2cccc(C(=N)N)c2)C(=O)OC(C)(C)C)C3=O)CC1 (centres unmarked) [Example 24]
